From ChEMBL document CHEMBL1201862, “PubChem BioAssay data set” (2004)
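Exposure lasted 48 hours, with cells grown in 96-well plates and compounds tested at five concentrations. GI50 = concentration required for 50% inhibition of growth.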 Activity calls are given as the source filed them. No stated cut-off is given here; in the data, active = GI50 up to about 1.1 µM and inactive = higher.

Assays:
Assay in all cases: inhibition of tumour cell growth, NCI panel, 48 h
UACC-257 = tested on: UACC-257
A549 = tested on: A549
786-0 = tested on: 786-0
IGROV-1 = tested on: IGROV-1
BT-549 = tested on: BT-549
ACHN = tested on: ACHN
NCI/ADR-RES = tested on: NCI/ADR-RES
HCT-116 = tested on: HCT-116
PC-3 = tested on: PC-3
MOLT-4 = tested on: MOLT-4
RPMI-8226 = tested on: RPMI-8226
SNB-19 = tested on: SNB-19
OVCAR-3 = tested on: OVCAR-3
MDA-N = tested on: MDA-N
SF-295 = tested on: SF-295
U-251 = tested on: U-251
NCI-H226 = tested on: NCI-H226
SF-268 = tested on: SF-268
HOP-62 = tested on: HOP-62
Hs-578T = tested on: Hs-578T
K562 = tested on: K562
HT-29 = tested on: HT-29
HOP-92 = tested on: HOP-92
MDA-MB-231 = tested on: MDA-MB-231
UACC-62 = tested on: UACC-62
OVCAR-8 = tested on: OVCAR-8
SR = tested on: SR
SK-OV-3 = tested on: SK-OV-3
MDA-MB-435 = tested on: MDA-MB-435
CAKI-1 = tested on: CAKI-1
HL-60 = tested on: HL-60
Malme-3M = tested on: Malme-3M
NCI-H460 = tested on: NCI-H460
EKVX = tested on: EKVX
OVCAR-5 = tested on: OVCAR-5
DU-145 = tested on: DU-145
SF-539 = tested on: SF-539
CCRF-CEM = tested on: CCRF-CEM
A498 = tested on: A498
SK-MEL-5 = tested on: SK-MEL-5
HCT-15 = tested on: HCT-15
TK-10 = tested on: TK-10
LOX IMVI = tested on: LOX IMVI
SW-620 = tested on: SW-620
KM12 = tested on: KM12
MCF7 = tested on: MCF7
SK-MEL-28 = tested on: SK-MEL-28
NCI-H23 = tested on: NCI-H23
M14 = tested on: M14
T47D = tested on: T47D
RXF 393 = tested on: RXF 393
UO-31 = tested on: UO-31
SK-MEL-2 = tested on: SK-MEL-2
COLO 205 = tested on: COLO 205
OVCAR-4 = tested on: OVCAR-4
SN12C = tested on: SN12C
SNB-75 = tested on: SNB-75
NCI-H522 = tested on: NCI-H522
HCC 2998 = tested on: HCC 2998

CC(CCN)(CCN)[N+](=O)[O-]
GI50 (UACC-257): > 100 µM (inactive)
GI50 (A549): > 100 µM (inactive)
GI50 (786-0): > 100 µM (inactive)
GI50 (IGROV-1): > 100 µM (inactive)
GI50 (BT-549): > 100 µM (inactive)
GI50 (ACHN): > 100 µM (inactive)
GI50 (NCI/ADR-RES): > 100 µM (inactive)
GI50 (HCT-116): > 100 µM (inactive)
GI50 (PC-3): > 100 µM (inactive)
GI50 (MOLT-4): > 100 µM (inactive)
GI50 (RPMI-8226): > 100 µM (inactive)
GI50 (SNB-19): > 100 µM (inactive)
GI50 (OVCAR-3): > 100 µM (inactive)
GI50 (MDA-N): > 100 µM (inactive)
GI50 (SF-295): > 100 µM (inactive)
GI50 (U-251): > 100 µM (inactive)
GI50 (NCI-H226): > 100 µM (inactive)
GI50 (SF-268): > 100 µM (inactive)
GI50 (HOP-62): > 100 µM (inactive)
GI50 (Hs-578T): > 100 µM (inactive)
GI50 (K562): > 100 µM (inactive)
GI50 (HT-29): > 100 µM (inactive)
GI50 (HOP-92): > 100 µM (inactive)
GI50 (MDA-MB-231): > 100 µM (inactive)
GI50 (UACC-62): > 100 µM (inactive)
GI50 (OVCAR-8): > 100 µM (inactive)
GI50 (SR): > 100 µM (inactive)
GI50 (SK-OV-3): > 100 µM (inactive)
GI50 (MDA-MB-435): > 100 µM (inactive)
GI50 (CAKI-1): > 100 µM (inactive)
GI50 (HL-60): > 100 µM (inactive)
GI50 (Malme-3M): > 100 µM (inactive)
GI50 (NCI-H460): > 100 µM (inactive)
GI50 (EKVX): > 100 µM (inactive)
GI50 (OVCAR-5): > 100 µM (inactive)
GI50 (DU-145): > 100 µM (inactive)
GI50 (SF-539): > 100 µM (inactive)
GI50 (CCRF-CEM): > 100 µM (inactive)
GI50 (A498): > 100 µM (inactive)
GI50 (SK-MEL-5): > 100 µM (inactive)
GI50 (HCT-15): > 100 µM
GI50 (TK-10): > 100 µM (inactive)
GI50 (LOX IMVI): > 100 µM (inactive)
GI50 (SW-620): > 100 µM (inactive)
GI50 (KM12): > 100 µM (inactive)
GI50 (MCF7): > 100 µM (inactive)
GI50 (SK-MEL-28): > 100 µM (inactive)
GI50 (NCI-H23): > 100 µM (inactive)
GI50 (M14): > 100 µM (inactive)
GI50 (T47D): > 100 µM (inactive)
GI50 (RXF 393): > 100 µM (inactive)
GI50 (UO-31): > 100 µM (inactive)
GI50 (SK-MEL-2): > 100 µM (inactive)
GI50 (COLO 205): > 100 µM (inactive)
GI50 (OVCAR-4): > 100 µM (inactive)
GI50 (SN12C): 77.3 µM (inactive)
GI50 (SNB-75): > 100 µM (inactive)
GI50 (NCI-H522): > 100 µM (inactive)

Clc1ccc(-c2nnc3sc4nc5ccccc5c-4nn23)c(Cl)c1
GI50 (UACC-257): 38.5 µM (inactive)
GI50 (A549): 41.7 µM (inactive)
GI50 (786-0): 52.6 µM (inactive)
GI50 (BT-549): 28.9 µM (inactive)
GI50 (ACHN): 82.8 µM (inactive)
GI50 (NCI/ADR-RES): 34.4 µM (inactive)
GI50 (HCT-116): 40.7 µM (inactive)
GI50 (PC-3): 43.3 µM (inactive)
GI50 (HCC 2998): 28.7 µM (inactive)
GI50 (MOLT-4): 36.8 µM (inactive)
GI50 (SNB-19): 49.4 µM (inactive)
GI50 (OVCAR-3): 29 µM (inactive)
GI50 (MDA-N): 28.6 µM (inactive)
GI50 (SF-295): 36.2 µM (inactive)
GI50 (U-251): 36.6 µM (inactive)
GI50 (NCI-H226): 64.3 µM (inactive)
GI50 (SF-268): 33.7 µM (inactive)
GI50 (HOP-62): 67 µM (inactive)
GI50 (Hs-578T): 21.7 µM (inactive)
GI50 (K562): 31.8 µM (inactive)
GI50 (HT-29): 55.7 µM (inactive)
GI50 (HOP-92): 19.1 µM (inactive)
GI50 (MDA-MB-231): 99.3 µM (inactive)
GI50 (UACC-62): 33.5 µM (inactive)
GI50 (OVCAR-8): 50 µM (inactive)
GI50 (SR): 44.9 µM (inactive)
GI50 (SK-OV-3): 95.1 µM (inactive)
GI50 (MDA-MB-435): 32.6 µM (inactive)
GI50 (CAKI-1): 34.7 µM (inactive)
GI50 (HL-60): 41.7 µM (inactive)
GI50 (Malme-3M): 49.4 µM (inactive)
GI50 (NCI-H460): 41.8 µM (inactive)
GI50 (EKVX): 28.8 µM (inactive)
GI50 (OVCAR-5): 50.6 µM (inactive)
GI50 (DU-145): 72.1 µM (inactive)
GI50 (SF-539): 50.9 µM (inactive)
GI50 (CCRF-CEM): 36.5 µM (inactive)
GI50 (A498): 36.4 µM (inactive)
GI50 (SK-MEL-5): 42.8 µM (inactive)
GI50 (HCT-15): 34.9 µM
GI50 (TK-10): 55.2 µM (inactive)
GI50 (LOX IMVI): 44 µM (inactive)
GI50 (SW-620): 46 µM (inactive)
GI50 (KM12): 37.5 µM (inactive)
GI50 (MCF7): 43.3 µM (inactive)
GI50 (SK-MEL-28): 43.9 µM (inactive)
GI50 (NCI-H23): 29 µM (inactive)
GI50 (M14): 48.3 µM (inactive)
GI50 (T47D): 59.2 µM (inactive)
GI50 (RXF 393): 78.9 µM (inactive)
GI50 (UO-31): 62.4 µM (inactive)
GI50 (SK-MEL-2): 30.6 µM (inactive)
GI50 (COLO 205): 56.4 µM (inactive)
GI50 (OVCAR-4): 42 µM (inactive)
GI50 (SN12C): 50.6 µM (inactive)
GI50 (SNB-75): 71 µM (inactive)
GI50 (NCI-H522): 26.2 µM (inactive)
